In patent publication US10253006B2, “Assay for the detection of the phenylpiperazine family” (RANDOX LABORATORIES LIMITED, priority 2012, dated 2019):
Where two headings read alike, the source gives them in different places.

Legend:
Type in all cases: binding, sheep
[1] = system: antibody 2 raised against Immunogen II
Method: (§1) A semi-automated Evidence Investigator analyser (Randox Laboratories Ltd., Crumlin, UK) was used as the platform for a biochip assay for the detection of phenylpiperazines.
(§2) Immunogens were administered to 16-month old Suffolk sheep on a monthly basis to provide target specific polyclonal antisera. The immunisation mixture was prepared by adding 2 mg of immunogen prepared in PBS at a ratio of 50% Immunogen/PBS with 50% Freund's Complete adjuvant (Sigma, Product Number—F5881) and emulsifying the mixture to prepare the final product for immunisation. On day 0, 1 ml of the mixture described above was administered intramuscularly to adult sheep. Subsequent boosts (a total of 20 boosts) were administered intramuscularly to each sheep every 30 days. Freund's complete adjuvant (Sigma, Product Number—F5881) was used for primary immunizations and Freund's incomplete adjuvant (Sigma product Number—F5506) was used for all subsequent injections. Routine bleeds were taken between boosts to monitor the antibody titre and sensitivity, using hapten B conjugated to Horseradish peroxidase in a competitive ELISA, testing cross reactivity to 1-(3-Chlorophenyl)piperazine. In the case of the combination immunoassay, immunogens II and IV were administered to separate sheep and the resulting antisera were combined in a 1:1 ratio to form the antibody blend (1 ml of antisera from the sheep administered with Immunogen II was combined with 1 ml of antisera from the sheep administered with Immunogen IV). IgG was extracted from antisera and purified as described above, and the purified antibodies were immobilised on a biochip (9 mm×9 mm) (Randox Laboratories Ltd). The assay was based on competition for binding sites of a polyclonal antibody between Hapten B-HRP conjugate (Example 9) and phenylpiperazines and potential cross-reactants. The antibodies were immobilised and stabilised onto the biochip surface as previously described (Fitzgerald et al., 2005). Assay dilutent (155 μL), calibrator/phenylpiperazine or potential cross-reactant (25 μL) followed by Hapten-B conjugate (120 μL) were added to the appropriate biochip. The biochips were then incubated for 30 minutes at 30° C. on a thermoshaker set at 370 rpm. The biochips were then subjected to 2 quick wash cycles using the wash buffer provided, followed by 4×2 minute wash cycles. 250 μL of signal (1:1 luminol+peroxide, v/v) was then added to each biochip, and after 2 minutes the biochip carrier was imaged in the Evidence Investigator analyser.
(§3) Calibration curves were generated using the Biochip-based immunoassay. IC50 values were calculated from the graphs by taking 50% of the signal from the zero calibrator and reading the corresponding value on the x-axis, equivalent to the concentration of unlabelled ligand which reduces specific binding of labelled ligand by 50%. Specificity (measured as percentage cross-reactivity−[IC50 (analyte)/IC50 (cross-reactant)]×100) was also tested against a range of piperazine derivatives and other compounds sharing structural features (see table 1).

[2] = system: Combination of antibodies 1 & 2 (antisera combined in a 1:1 ratio)
Method: as §1, §2, §3

[3] = system: antibody 1 raised against Immunogen IV; test: Biochip competitive immunoassay, antibody 1
Method: as §1, §2, §3

[4] = Antibody 2, Hapten B-HRP conjugate
[5] = Antibody 2, standardized to 1-(3-chlorophenyl)piperazine monohydrochloride, Hapten B-HRP conjugate
[6] = Combination of antibodies 1 & 2, Hapten B-HRP conjugate
[7] = Combination of antibodies 1 & 2, standardized to 1-(3-chlorophenyl)piperazine monohydrochloride, Hapten B-HRP conjugate
[8] = Antibody 1, Hapten B-HRP conjugate
[9] = Antibody 1, standardized to 1-(3-chlorophenyl)piperazine monohydrochloride, Hapten B-HRP conjugate

Row | Compound | IC50 [1, 4] [ng/mL] | Cross-reactivity (%) [1, 5] [%] | IC50 [2, 6] [ng/mL] | Cross-reactivity (%) [2, 7] [%] | IC50 [3, 8] [ng/mL] | Cross-reactivity (%) [3, 9] [%] | Cross-reactivity (%) [1] [%] | Cross-reactivity (%) [2] [%] | Cross-reactivity (%) [3] [%] | IC50 [1] [ng/mL] | IC50 [2] [ng/mL] | IC50 [3] [ng/mL]
1 | FC(F)(F)c1cccc(N2CCNCC2)c1 [1-(3-Trifluoromethylphenyl)piperazine] | 4.831 | 61 | 5.958 | 44 | 7.620 | 13 |  |  |  |  |  | 
2 | C1CNCCN1 [Piperazine] |  |  |  |  |  |  | <1 | <1 | <1 |  |  | 
3 | Nc1cccc(C(F)(F)F)c1O [3-Amino-2-hydroxybenzotrifluoride] |  | <1 |  | <1 |  | <1 |  |  |  |  |  | 
4 | Clc1cccc(N2CCNCC2)c1 [1-(3-Chlorophenyl)piperazine (mCPP), 1-(3-chlorophenyl)piperazine] | 2.554 | 100 | 2.075 | 100 | 0.907 | 100 |  |  |  |  |  | 
5 | COc1ccccc1N1CCNCC1 [1-(2-Methoxyphenyl)piperazine] | 8.770 | 34 | 15.553 | 17 | 335.160 | <1 |  |  |  |  |  | 
6 | CCCCCn1cc(C(=O)Cc2ccccc2OC)c2ccccc21 [JWH-250] |  | <1 |  | <1 |  | <1 |  |  |  |  |  | 
7 | Oc1ccc(N2CCNCC2)cc1 [1-(4-hydroxyphenyl)piperazine] | 28.195 | 10 | 15.032 | 18 | 1.029 | 57 |  |  |  |  |  | 
8 | O=c1n(CCCN2CCN(c3cccc(Cl)c3)CC2)nc2ccccn12 [Trazadone] |  | <1 |  |  |  | <1 |  | <1 |  |  |  | 
9 | CNC(C)C(=O)c1ccc(C)cc1 (centres unmarked) [Mephedrone] |  | <1 |  | <1 |  | <1 |  |  |  |  |  | 
10 | (+)-Pseudoephedrine |  | <1 |  | <1 |  | <1 |  |  |  |  |  | 
11 | Cc1cccc(N2CCNCC2)c1 [1-(3-Methylphenyl)piperazine (mMPP), 1-(3-Methylphenyl)piperazine] | 1.697 | 230 | 1.418 | 191 | 0.840 | 129 |  |  |  |  |  | 
12 | CCC(C(=O)c1ccc2c(c1)OCO2)N1CCCC1 (centres unmarked) [MDPBP] |  | <1 |  | <1 |  | <1 |  |  |  |  |  | 
13 | Fc1ccc(N2CCNCC2)cc1 [1-(4-Fluorophenyl)piperazine] | 7.646 | 38 | 5.113 | 51 | 1.085 | 54 |  |  |  |  |  | 
14 | CCCCCn1cc(C(=O)c2cccc3ccccc23)c2ccccc21 [JWH-018] |  | <1 |  | <1 |  | <1 |  |  |  |  |  | 
15 | c1ccc(N2CCNCC2)cc1 [1-phenylpiperazine] | 2.795 | 140 | 2.163 | 125 | 1.017 | 106 |  |  |  |  |  | 
16 | COC(=O)[C@@H]1C[C@H](OC(C)=O)C(=O)[C@H]2[C@@]1(C)CC[C@H]1C(=O)O[C@H](c3ccoc3)C[C@]21C [Salvinorin A] |  | <1 |  | <1 |  | <1 |  |  |  |  |  | 
17 | COc1ccc(N2CCNCC2)cc1 [1-(4-Methoxyphenyl)piperazine (pMeOPP), 1-(4-methoxyphenyl)piperazine] | 19.771 | 20 | 10.226 | 26 | 0.868 | 68 |  |  |  |  |  | 
18 | Oc1cccc(N2CCNCC2)c1 [1-(3-hydroxyphenyl)piperazine] |  |  |  |  |  |  | 156 | 95 | 31 | 2.504 | 2.848 | 3.469
19 | COc1cc(CCN)cc(OC)c1OC [Mescaline] |  | <1 |  | <1 |  | <1 |  |  |  |  |  | 
20 | c1ccc(CN2CCNCC2)cc1 [1-benzylpiperazine (BZP), 1-benzylpiperazine] |  | <1 |  | <1 | 232.706 | <1 |  |  |  |  |  | 
21 | OC1(c2ccc(Cl)cc2)CCNCC1 [4-(4-Chlorophenyl)-4-Hydroxypiperidine] |  | <1 |  | <1 | 218.980 | <1 |  |  |  |  |  | 
22 | CN1CCNC(c2ccccc2)C1 (centres unmarked) [1-Methyl-3-phenylpiperazine] |  | <1 |  | <1 |  | <1 |  |  |  |  |  | 
